Tests used:
human TLR7 = target: T1, human TLR7 (Homo sapiens, UniProt Q9NYK1); assay: TLR7 reporter cell assay (HEK293 cells stably expressing human TLR7 with NF-κB-driven SEAP reporter); type: cell-based; conditions: 15-24 hours; for Emax at 500 µM: HEK293, 500 μM compound, SEAP activity (OD 650 nm) relative to 28.5 μM resiquimod, read-out: Response at 500 μM Compound as a Percent of Resiquimod Response; for EC50: fit of SEAP dose response, ymax from 28.5 μM resiquimod
T1 construct: host or cells: HEK293
T1 sequence (Q9NYK1 27-1049): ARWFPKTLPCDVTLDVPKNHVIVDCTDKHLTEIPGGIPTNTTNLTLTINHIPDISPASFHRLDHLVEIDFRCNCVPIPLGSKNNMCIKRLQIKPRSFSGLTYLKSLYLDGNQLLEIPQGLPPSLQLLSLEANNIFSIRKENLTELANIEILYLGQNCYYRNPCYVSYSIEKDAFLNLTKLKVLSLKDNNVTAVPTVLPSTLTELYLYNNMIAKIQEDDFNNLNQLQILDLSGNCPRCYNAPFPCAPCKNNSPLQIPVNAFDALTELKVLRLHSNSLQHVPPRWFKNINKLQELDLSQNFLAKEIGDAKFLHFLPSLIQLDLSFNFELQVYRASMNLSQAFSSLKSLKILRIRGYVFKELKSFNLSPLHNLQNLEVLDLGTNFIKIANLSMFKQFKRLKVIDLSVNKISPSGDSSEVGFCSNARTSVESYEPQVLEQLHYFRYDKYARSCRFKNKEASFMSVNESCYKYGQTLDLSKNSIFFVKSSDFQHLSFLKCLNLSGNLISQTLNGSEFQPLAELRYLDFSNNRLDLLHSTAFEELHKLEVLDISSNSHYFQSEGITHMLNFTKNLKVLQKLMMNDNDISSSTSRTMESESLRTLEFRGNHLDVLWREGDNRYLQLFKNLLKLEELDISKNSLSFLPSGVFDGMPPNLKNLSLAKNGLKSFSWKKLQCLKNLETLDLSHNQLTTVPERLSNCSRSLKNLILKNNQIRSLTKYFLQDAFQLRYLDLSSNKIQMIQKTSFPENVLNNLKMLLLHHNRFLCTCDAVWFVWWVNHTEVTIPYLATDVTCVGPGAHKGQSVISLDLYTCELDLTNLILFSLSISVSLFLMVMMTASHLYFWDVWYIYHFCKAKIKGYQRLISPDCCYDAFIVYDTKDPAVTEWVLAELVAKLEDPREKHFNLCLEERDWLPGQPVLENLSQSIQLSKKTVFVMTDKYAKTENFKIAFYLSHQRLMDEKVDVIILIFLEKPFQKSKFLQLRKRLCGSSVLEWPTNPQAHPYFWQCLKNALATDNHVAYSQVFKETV
From the text: The engagement of TLRs by cognate ligands triggers downstream signaling cascades, leading to the activation of NF-κB and other transcription factors which initiate various immunomodulatory effects. The human embryonic kidney cell line, HEK293, is essentially non-responsive to TLR agonists, but ectopic expression of TLRs in these cells allows cognate agonists to activate endogenous NF-κB. Accordingly, the HEK293-TLR-NF-κB inducible reporter system is used to assay TLR agonists.
HEK293 cell lines stably expressing human TLR7 or TLR8 together with an NF-κB-driven-secreted alkaline phosphatase (SEAP) reporter were invented at InvivoGen (San Diego, California, USA) and used to assess compounds of the present invention for TLR7 and TLR8 agonist activities. Cells were seeded at 2-5×10^4 cells/well in 96 well plates (200 μl/well) and treated with various concentrations of compound (10 μl) for 15-24 hours. SEAP activity was determined by measuring OD at 650 nm; the media used to culture the cell lines contains the reagents required for SEAP detection. The EC50 values in Table 1 are calculated from fitting the dose response of measured SEAP activity for each compound to the following equation: Y=ymax*c^nh/(EC50^nh+c^nh)+blank where Y is the experimentally measured OD650 at concentration c of test article, blank is the observed OD650 in the absence of TLR7 agonist, ymax is the difference between the measured OD650 in the presence of 28.5 μM resiquimod and the blank and values of EC50 and nh are determined by nonlinear least squares analysis. Resiquimod is a known TLR7 and TLR8 agonist.
Compound A is 5-amino-3-((2R,3R,5S)-3-hydroxy-5-((S)-1-hydroxypropyl)tetrahydrofuran-2-yl)thiazolo[4,5-d]pyrimidine-2,7(3H,6H)-dione)

[1] = system: hPBMCs (Human Peripheral Blood Mononuclear Cells); assay: Induction of interferon-α in hPBMCs in vitro; type: cell-based; conditions: Homo sapiens, PBMC; for Emax: 24 h, peak IFNα2a as percentage of peak response of standard 2-Amino-7-(cyclopropylmethyl)-9-B-D-xylofuranosyl-7,9-dihydro-1H-purine-6,8-dione, averaged across donors, read-out: IFNrmax, Relative Maximal IFNα2a Production (%); for minimal effective concentration: minimal effective concentration for interferon-α production (generally at least 80 pg/ml above baseline), geometric mean across at least three donors, 24 hours, read-out: Weighted MEC
Protocol: Treatment of hPBMCs with a TLR7 agonist typically induces some production of interferon-α as well as lesser amounts of a variety of other cytokines and chemokines. A typical experiment uses hPBMCs isolated from a healthy donor and placed in replicate cell culture wells; typically 1.0-7.5×10^6 cells are placed in each well. A test compound is added and the cells are cultured for 24 hours at 37° C. in a humidified atmosphere containing 5% CO2 post-addition; untreated controls are included. Secreted interferon-α production is measured using an a multisubtype interferon-α ELISA kit like those from PBL Assay Sciences or specifically as IFNα2a as part of a panel of cytokines and chemokines using luminex methodologies.
The minimal effective concentration (MEC) is the minimum concentration in a dose response curve where a significant increase in interferon-α production (generally at least 80 pg/ml) is observed above baseline. MEC values for each compound are determined for at least three donors. The weighted MEC for each compound is the geometric mean of all individual MECs across all donors. Concentrations tested typically consist of a two-fold dilution series starting at 100 μM. In the calculation of weighted MEC, any individual MEC value greater the highest concentration tested is arbitrarily set to two times the highest concentration tested unless all MECs for a compound exceed this value. The maximal amount of IFNα2a for each donor is determined from dose dependence for each compound.
In order to normalize for variation in each hPBMC preparation, these values are first transformed by expressing as a percentage of peak response measured with a standard (2-Amino-7-(cyclopropylmethyl)-9-B-D-xylofuranosyl-7,9-dihydro-1H-purine-6,8-dione) and then averaging the results across all donors, this average referred to as IFNrmax.
IFNmax is the maximum amount of IFN observed at any concentration across the evaluated concentration range. MEC and IFNmax values for three select compound are shown for three donors (Table 3). The range of tested concentrations were 0.625-5 μM for Imiquimod, 3.125-100 μM for both Compound A and Compound 1, 12.5-100 μM for Compound 2.

Compound	Emax at 500 µM (human TLR7) [%]	EC50 (human TLR7) [µM]	Emax [1] [%]	minimal effective concentration [1] [µM]
CC[C@H](O)[C@@H]1C[C@@H](O)[C@H](n2c(=O)n(CC3CC3)c3c(=O)[nH]c(N)nc32)O1 [Compound 4, 2-Amino-7-(cyclopropylmethyl)-9-((2R,3R,5S)-3-hydroxy-5-((S)-1-hydroxypropyl)tetrahydrofuran-2-yl)-7,9-dihydro-1H-purine-6,8-dione]	81	132	226	12.5
C=C=Cn1c(=O)n([C@@H]2O[C@H]([C@@H](O)CC)C[C@H]2O)c2nc(N)[nH]c(=O)c21 [Compound 8, 2-Amino-9-((2R,3R,5S)-3-hydroxy-5-((S)-1-hydroxypropyl)tetrahydrofuran-2-yl)-7-(propa-1,2-dien-1-yl)-7,9-dihydro-1H-purine-6,8-dione]	< 5		215	5.4
C#CCn1c(=O)n([C@@H]2O[C@H]([C@H](C)O)C[C@H]2O)c2nc(N)[nH]c(=O)c21 [Compound 9, 2-Amino-9-((2R,3R,5S)-3-hydroxy-5-((S)-1-hydroxyethyl)tetrahydrofuran-2-yl)-7-(prop-2-yn-1-yl)-7,9-dihydro-1H-purine-6,8-dione]	58	182	191	6.2
C#CCn1c(=O)n([C@@H]2O[C@H]([C@@H](O)CC)[C@H](F)[C@H]2O)c2nc(N)[nH]c(=O)c21 [Compound 13, 2-Amino-9-((2R,3S,4R,5R)-4-fluoro-3-hydroxy-5-((S)-1-hydroxypropyl)tetrahydrofuran-2-yl)-7-(prop-2-yn-1-yl)-7,9-dihydro-1H-purine-6,8-dione]	92	119	353	≤ 3.3
C#CCn1c(=O)n([C@@H]2O[C@H]([C@@H](O)CO)C[C@H]2O)c2nc(N)[nH]c(=O)c21 [Compound 14, 2-Amino-9-((2R,3R,5S)-5-((S)-1,2-dihydroxyethyl)-3-hydroxytetrahydrofuran-2-yl)-7-(prop-2-yn-1-yl)-7,9-dihydro-1H-purine-6,8-dione]	< 5		≤ 10	> 50
C#CCn1c(=O)n([C@@H]2O[C@H]([C@@H](O)CN)C[C@H]2O)c2nc(N)[nH]c(=O)c21 [Compound 15, 2-Amino-9-((2R,3R,5S)-5-((S)-2-amino-1-hydroxyethyl)-3-hydroxytetrahydrofuran-2-yl)-7-(prop-2-yn-1-yl)-7,9-dihydro-1H-purine-6,8-dione]	< 5		≤ 10	> 50
C#CCn1c(=O)n([C@@H]2O[C@H]([C@@H](O)CNC)C[C@H]2O)c2nc(N)[nH]c(=O)c21 [Compound 16, 2-Amino-9-((2R,3R,5S)-3-hydroxy-5-((S)-1-hydroxy-2-(methylamino)ethyl)tetrahydrofuran-2-yl)-7-(prop-2-yn-1-yl)-7,9-dihydro-1H-purine-6,8-dione]	< 5		≤ 10	> 50
CC[C@H](O)[C@H]1O[C@@H](n2c(=O)n(CC3CC3)c3c(=O)[nH]c(N)nc32)[C@H](O)[C@H]1F [Compound 17, 2-Amino-7-(cyclopropylmethyl)-9-((2R,3S,4R,5R)-4-fluoro-3-hydroxy-5-((S)-1-hydroxypropyl)tetrahydrofuran-2-yl)-7,9-dihydro-1H-purine-6,8-dione]	58	358	185	≤ 3.1
C#CCn1c(=O)n([C@@H]2O[C@H](C(C)(C)O)C[C@H]2O)c2nc(N)[nH]c(=O)c21 [Compound 18, 2-Amino-9-((2R,3R,5S)-3-hydroxy-5-(2-hydroxypropan-2-yl)tetrahydrofuran-2-yl)-7-(prop-2-yn-1-yl)-7,9-dihydro-1H-purine-6,8-dione]	< 5		≤ 10	> 50
C#CCn1c(=O)n([C@@H]2O[C@H](C(C)(C)O)[C@H](F)[C@H]2O)c2nc(N)[nH]c(=O)c21 [Compound 19, 2-Amino-9-((2R,3S,4R,5R)-4-fluoro-3-hydroxy-5-(2-hydroxypropan-2-yl)tetrahydrofuran-2-yl)-7-(prop-2-yn-1-yl)-7,9-dihydro-1H-purine-6,8-dione]	< 5		≤ 10	> 50
CC[C@H](O)[C@@H]1C[C@@H](O)[C@H](n2c(=O)n(CCSC)c3c(=O)[nH]c(N)nc32)O1 [Compound 22, 2-Amino-9-((2R,3R,5S)-3-hydroxy-5-((S)-1-hydroxypropyl)tetrahydrofuran-2-yl)-7-(2-(methylthio)ethyl)-7,9-dihydro-1H-purine-6,8-dione]	69	224	307	6.3
C#CCn1c(=O)n([C@@H]2O[C@H]([C@H](O)CF)C[C@H]2O)c2nc(N)[nH]c(=O)c21 [Compound 23, 2-Amino-9-((2R,3R,5S)-5-((S)-2-fluoro-1-hydroxyethyl)-3-hydroxytetrahydrofuran-2-yl)-7-(prop-2-yn-1-yl)-7,9-dihydro-1H-purine-6,8-dione]	< 5		≤ 10	> 50

Source: US12187759B2, “TLR7 agonists” (Primmune Therapeutics, Inc., priority 2019, dated 2025)
